Data set [1] has as its target T1, von Hippel-Lindau disease tumor suppressor/Protein arginine N-methyltransferase 5 (Homo sapiens, UniProt O14744+P40337). Briefly: PROTAC activity at PRMT5/VHL in human MDA-MB-468 cells assessed as degradation measured at 0.5 uM after 72 hrs by Western blot analysis. Format: cell-based. In general terms: A western blot detects proteins with antibodies after separation by electrophoresis.

For data set [2], the target named is T1, von Hippel-Lindau disease tumor suppressor/Protein arginine N-methyltransferase 5. As to the kind of experiment: PROTAC activity at PRMT5/VHL in human MDA-MB-468 cells assessed as degradation measured at 5 uM after 72 hrs by Western blot analysis. Format: cell-based.
Data set [3] addresses T2, von Hippel-Lindau disease tumor suppressor/Methylosome protein WDR77 (Homo sapiens, UniProt Q9BQA1+P40337). Briefly: PROTAC activity at MEP50/VHL in human MDA-MB-468 cells assessed as degradation measured at 0.5 uM after 72 hrs by Western blot analysis. Format: cell-based.
For data set [4], the target named is T2, von Hippel-Lindau disease tumor suppressor/Methylosome protein WDR77. As to the kind of experiment: PROTAC activity at MEP50/VHL in human MDA-MB-468 cells assessed as degradation measured at 5 uM after 72 hrs by Western blot analysis. It counts as cell-based.
Data set [5] deals with MDA-MB-468. As to the kind of experiment: Inhibition of sDMA (symmetric dimethylarginine) level in human MDA-MB-468 cells at 0.5 uM measured after 72 hrs by Western blot analysis. It counts as functional, cell-based.
The subject of data set [6] is MDA-MB-468. As to the kind of experiment: Inhibition of sDMA (symmetric dimethylarginine) level in human MDA-MB-468 cells at 5 uM measured after 72 hrs by Western blot analysis. It counts as functional, cell-based.
Data set [7] has as its system MDA-MB-468. Briefly: Cytotoxicity against human MDA-MB-468 cells assessed as cell viability measured after 7 days by CCK-8 assay. It counts as functional. The conditions noted are these: MDA-MB-468, 168 h, time 7 day.
The test system of data set [8] is MDA-MB-468. As to the kind of experiment: Inhibition of sDMA (symmetric dimethylarginine) level in human MDA-MB-468 cells at 2 uM measured after 7 days by Western blot analysis. Format: functional, cell-based. Particulars: time 7.0 day.
The target in data set [9] is T1, von Hippel-Lindau disease tumor suppressor/Protein arginine N-methyltransferase 5. As to the kind of experiment: PROTAC activity at PRMT5/VHL in human PC-3 cells assessed as degradation at 0.5 to 5 uM after 7 hrs by Western blot analysis. It counts as cell-based. The conditions noted are these: dose 0.5-5 µM.
The target in data set [10] is T2, von Hippel-Lindau disease tumor suppressor/Methylosome protein WDR77. As to the kind of experiment: PROTAC activity at MEP50/VHL in human PC-3 cells assessed as degradation at 0.5 to 5 uM after 7 hrs by Western blot analysis. Format: cell-based. The conditions noted are these: dose 0.5-5 µM.
Data set [11] has as its target T1, von Hippel-Lindau disease tumor suppressor/Protein arginine N-methyltransferase 5. Briefly: PROTAC activity at PRMT5/VHL in human MDA-MB-468 cells assessed as degradation measured at 0.5 to 5 uM after 24 hrs by Western blot analysis. Format: cell-based. Particulars: dose 0.5-5 µM.
Data set [12] deals with T2, von Hippel-Lindau disease tumor suppressor/Methylosome protein WDR77. As to the kind of experiment: PROTAC activity at MEP50/VHL in human MDA-MB-468 cells assessed as degradation measured at 0.5 to 5 uM after 24 hrs by Western blot analysis. Particulars: dose 0.5-5 µM. It counts as cell-based.
In data set [13] the target is T1, von Hippel-Lindau disease tumor suppressor/Protein arginine N-methyltransferase 5. As to the kind of experiment: PROTAC activity at PRMT5/VHL in human MCF-10A cells assessed as degradation at 0.5 to 5 uM after 3 days by Western blot analysis. Particulars: dose 0.5-5 µM, time 3.0 day. It counts as cell-based.
The test system of data set [14] is MCF-10A. Briefly: PROTAC activity at MEP50/VHL in human MCF-10A cells assessed as degradation at 0.5 to 5 uM after 3 days by Western blot analysis. The conditions noted are these: dose 0.5-5 µM, time 3.0 day. It counts as cell-based.
Data set [15] concerns the target T2, von Hippel-Lindau disease tumor suppressor/Methylosome protein WDR77. Briefly: PROTAC activity at MEP50/VHL in human PNT2 cells assessed as degradation at 0.5 to 5 uM after 3 days by Western blot analysis. Format: cell-based. Particulars: dose 0.5-5 µM, time 3.0 day.
Data set [16] deals with MCF-10A. Briefly: Cytotoxicity against human MCF10A cells assessed as cell viability up to 15 uM measured after 5 days by CCK-8 assay. It counts as toxicity, cell-based. Particulars: 120 h, time 5 day. A general note: Tetrazolium dyes change colour on reduction, which living cells bring about.
Data set [17] is described as follows: PROTAC activity at PRMT5/VHL in human PNT2 cells assessed as degradation at 0.5 to 5 uM after 3 days by Western blot analysis. Particulars: dose 0.5-5 µM, time 3.0 day.
Data set [18] deals with T1, von Hippel-Lindau disease tumor suppressor/Protein arginine N-methyltransferase 5. As to the kind of experiment: PROTAC activity at PRMT5/VHL in human MDA-MB-468 cells assessed as maximal degradation at 5 uM measured after 72 hrs by Western blot analysis relative to control. It counts as cell-based.
The target in data set [19] is T2, von Hippel-Lindau disease tumor suppressor/Methylosome protein WDR77. As to the kind of experiment: PROTAC activity at MEP50/VHL in human MDA-MB-468 cells assessed as maximal degradation at 5 uM measured after 72 hrs by Western blot analysis relative to control. It counts as cell-based.
Data set [20] has as its target T1, von Hippel-Lindau disease tumor suppressor/Protein arginine N-methyltransferase 5. As to the kind of experiment: PROTAC activity at PRMT5/VHL in human MDA-MB-468 cells assessed as degradation at 2 uM measured up to 12 hrs by Western blot analysis. Format: cell-based.
The target of data set [21] is T2, von Hippel-Lindau disease tumor suppressor/Methylosome protein WDR77. As to the kind of experiment: PROTAC activity at MEP50/VHL in human MDA-MB-468 cells assessed as degradation at 2 uM measured up to 48 hrs by Western blot analysis. Format: cell-based.
For data set [22], the target named is Protein arginine N-methyltransferase 5 (Homo sapiens, UniProt O14744). As to the kind of experiment: Inhibition of PRMT5 (unknown origin) using S-adenosylmethionine (SAM) using as substrate preincubated for 30 mins followed by substrate addition measured after 60 mins by microplate reader.
The target of data set [23] is T1, von Hippel-Lindau disease tumor suppressor/Protein arginine N-methyltransferase 5. As to the kind of experiment: PROTAC activity at PRMT5/VHL in human MCF7 cells assessed as degradation at 0.5 uM after 3 days by Western blot analysis. Format: cell-based. The conditions noted are these: time 3.0 day.
For data set [24] the target is unchanged. As to the kind of experiment: PROTAC activity at PRMT5/VHL in human MCF7 cells assessed as degradation at 5 uM after 3 days by Western blot analysis. It counts as cell-based. The conditions noted are these: time 3.0 day.
In data set [25] the target is T2, von Hippel-Lindau disease tumor suppressor/Methylosome protein WDR77. Briefly: PROTAC activity at MEP50/VHL in human MCF7 cells assessed as degradation at 0.5 uM after 3 days by Western blot analysis. It counts as cell-based. The conditions noted are these: time 3.0 day.
The target is the same in data set [26]. Briefly: PROTAC activity at MEP50/VHL in human MCF7 cells assessed as degradation at 5 uM after 3 days by Western blot analysis. Format: cell-based. Particulars: time 3.0 day.
Data set [27] deals with T1, von Hippel-Lindau disease tumor suppressor/Protein arginine N-methyltransferase 5. Briefly: PROTAC activity at […]/VHL in human MDA-MB-468 cells assessed as relative protein level at 0.5 uM measured after 24 hrs by Western blot analysis. It counts as cell-based.
For data set [28] the target is unchanged. As to the kind of experiment: PROTAC activity at PRMT5/VHL in human MDA-MB-468 cells assessed as relative protein level at 5 uM measured after 24 hrs by Western blot analysis. Format: cell-based.
Data set [29] addresses T2, von Hippel-Lindau disease tumor suppressor/Methylosome protein WDR77. Briefly: PROTAC activity at MEP50/VHL in human MDA-MB-468 cells assessed as relative protein level at 0.5 uM measured after 24 hrs by Western blot analysis. It counts as cell-based.
The target is the same in data set [30]. As to the kind of experiment: PROTAC activity at MEP50/VHL in human MDA-MB-468 cells assessed as relative protein level at 5 uM measured after 24 hrs by Western blot analysis. It counts as cell-based.

Broadly, the GI50 is the concentration at which growth is held to half of that of the control. The term IC50 denotes the concentration at which inhibition is half-maximal. A higher IC50 goes with a need for much substance.

SMILES strings stand for the structures. Activity calls are given as the source filed them. No cut-off for these calls is given here.

T1 sequence (O14744 whole entry, looked up): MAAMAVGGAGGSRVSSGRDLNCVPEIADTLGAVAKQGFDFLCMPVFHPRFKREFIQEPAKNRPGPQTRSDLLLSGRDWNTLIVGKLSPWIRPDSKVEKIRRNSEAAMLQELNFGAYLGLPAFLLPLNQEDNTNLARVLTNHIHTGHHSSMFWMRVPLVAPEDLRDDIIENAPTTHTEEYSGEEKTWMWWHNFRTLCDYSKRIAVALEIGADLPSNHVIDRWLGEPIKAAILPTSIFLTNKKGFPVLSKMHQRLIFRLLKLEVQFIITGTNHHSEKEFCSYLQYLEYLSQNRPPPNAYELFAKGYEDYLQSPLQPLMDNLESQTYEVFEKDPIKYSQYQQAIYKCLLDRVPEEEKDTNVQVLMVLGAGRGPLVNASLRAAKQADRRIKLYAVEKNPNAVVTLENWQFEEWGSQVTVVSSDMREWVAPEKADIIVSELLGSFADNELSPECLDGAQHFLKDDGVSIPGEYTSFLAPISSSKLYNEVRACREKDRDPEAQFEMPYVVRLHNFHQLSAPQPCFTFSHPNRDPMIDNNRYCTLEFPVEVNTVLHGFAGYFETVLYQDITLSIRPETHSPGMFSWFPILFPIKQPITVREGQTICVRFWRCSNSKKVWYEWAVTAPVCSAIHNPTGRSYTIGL
T1 sequence (P40337 whole entry, looked up): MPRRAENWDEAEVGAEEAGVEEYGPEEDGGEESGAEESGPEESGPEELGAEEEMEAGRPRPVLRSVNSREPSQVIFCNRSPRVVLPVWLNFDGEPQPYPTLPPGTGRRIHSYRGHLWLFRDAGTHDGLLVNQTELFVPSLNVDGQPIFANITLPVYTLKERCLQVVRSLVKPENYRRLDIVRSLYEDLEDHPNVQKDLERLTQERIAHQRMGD
T2 sequence (P40337 whole entry, looked up): as above
T2 sequence (Q9BQA1 whole entry, looked up): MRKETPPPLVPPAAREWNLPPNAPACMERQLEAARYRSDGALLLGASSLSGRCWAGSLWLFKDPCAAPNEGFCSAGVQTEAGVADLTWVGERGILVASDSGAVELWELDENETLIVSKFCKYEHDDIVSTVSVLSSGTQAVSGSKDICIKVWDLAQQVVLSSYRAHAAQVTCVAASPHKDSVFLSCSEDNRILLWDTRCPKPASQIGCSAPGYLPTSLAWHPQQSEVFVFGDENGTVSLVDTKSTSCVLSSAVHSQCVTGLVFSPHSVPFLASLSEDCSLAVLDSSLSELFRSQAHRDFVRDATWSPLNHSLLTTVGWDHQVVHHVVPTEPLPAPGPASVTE
Sequence of Protein arginine N-methyltransferase 5 (O14744 whole entry): as the sequence (O14744 whole entry, looked up) above

As for `O=C(NC[C@H](O)CN1CCc2ccccc2C1)c1cc(NC2COC2)ncn1`, the outcome in [1], in data set [2], in [3] and in data set [4] was inactive. Further, the inhibition entry in data set [5] and in [6] was “Active” in each case. Also, the concentration for 50% growth inhibition (GI50) in data set [7] amounted to 0.23 µM. Also, in [8], the inhibition result is “Active; Compound Inhibited Greater Extent Than Ms4322”.

Regarding `Cc1ncsc1-c1ccc([C@H](CC(=O)NCCOCCOCCOCCOCCOCCC(=O)N2CCC(Nc3cc(C(=O)NC[C@H](O)CN4CCCCC4)ncn3)CC2)NC(=O)[C@@H]2C[C@@H](O)CN2C(=O)[C@@H](NC(=O)C2(F)CC2)C(C)(C)C)cc1`, the outcome in data set [1], in data set [2], in data set [3], in data set [4], in data set [9] and in [10] was inactive. Besides, in [7], the GI50 is over 20 µM.

Consider `O=C1CCC(N2C(=O)c3ccc(NCCCCCCCCCC(=O)N4CCC(Nc5cc(C(=O)NC[C@H](O)CN6CCc7ccccc7C6)ncn5)CC4)cc3C2=O)C(=O)N1` (stereo not given in full), for which the result in data set [11] and in data set [12] was inactive. Moreover, the Activity in [13] was 50%; in data set [14] it was 50%; in [15], 50%; in data set [16], “Toxic”; in data set [17], 50%.

Turning to `Cc1ncsc1-c1ccc([C@H](CC(=O)NCCOCCOCCOCCOCCOCCC(=O)N2CCC(Nc3cc(C(=O)NC[C@H](O)CN4CCc5ccccc5C4)ncn3)CC2)NC(=O)[C@@H]2C[C@H](O)CN2C(=O)[C@@H](NC(=O)C2(F)CC2)C(C)(C)C)cc1`, the result in data set [1], in data set [2], in [3], in data set [4], in data set [9] and in [10] was inactive. The concentration for 50% growth inhibition (GI50) in data set [7] is 9.9 µM.

As to `Cc1ncsc1-c1ccc([C@H](C)NC(=O)[C@@H]2C[C@@H](O)CN2C(=O)[C@@H](NC(=O)COCCOCCOCCOCCOCC(=O)N2CC(Nc3cc(C(=O)NC[C@H](O)CN4CCc5ccccc5C4)ncn3)C2)C(C)(C)C)cc1`, the Activity in data set [18] and in [19] was 50% each time. In addition, the result in data set [20], in data set [23], in data set [24], in data set [25] and in data set [26] was Active. Also, the outcome in [21] was inactive. This compound came in with an IC50 in data set [22] of 0.69 µM. Moreover, in data set [7], the GI50 is over 20 µM.

On to `Cc1ncsc1-c1ccc([C@H](CC(=O)NCCCC(=O)N2CCC(Nc3cc(C(=O)NC[C@H](O)CN4CCc5ccccc5C4)ncn3)CC2)NC(=O)[C@@H]2C[C@@H](O)CN2C(=O)[C@@H](NC(=O)C2(F)CC2)C(C)(C)C)cc1`, for which the result in [27], in [28], in data set [29] and in data set [30] was Active.

In the case of `Cc1ncsc1-c1ccc(CNC(=O)[C@@H]2C[C@@H](O)CN2C(=O)[C@@H](NC(=O)C2(F)CC2)C(C)(C)C)c(OCC(=O)NCCOCCOCCOCCOCCC(=O)N2CCC(Nc3cc(C(=O)NC[C@H](O)CN4CCc5ccccc5C4)ncn3)CC2)c1`, the result in data set [27], in [28] and in data set [29] was inactive. For the same compound, in data set [30], the outcome was Active.

As for `Cc1ncsc1-c1ccc([C@H](CC(=O)NCCCCCCC(=O)N2CCC(Nc3cc(C(=O)NC[C@H](O)CN4CCc5ccccc5C4)ncn3)CC2)NC(=O)[C@@H]2C[C@@H](O)CN2C(=O)[C@@H](NC(=O)C2(F)CC2)C(C)(C)C)cc1`, the outcome in [27], in data set [28], in data set [29] and in [30] was Active.

On to `Cc1ncsc1-c1ccc([C@H](CC(=O)NCCOCCC(=O)N2CCC(Nc3cc(C(=O)NC[C@H](O)CN4CCc5ccccc5C4)ncn3)CC2)NC(=O)[C@@H]2C[C@@H](O)CN2C(=O)[C@@H](NC(=O)C2(F)CC2)C(C)(C)C)cc1`, for which the result in data set [27], in [28], in data set [29] and in data set [30] was inactive.

The values are drawn from ChEMBL document CHEMBL6109159, “Discovery of a Potent and Selective Protein Arginine Methyltransferase 5 (PRMT5) PROTAC Degrader” (J Med Chem, 2025).
